Tests used:
FUS-mEGFP/RNA droplets = target: T1, FUS-mEGFP/RNA droplets (Homo sapiens, UniProt P35637); assay: Rho800 titration in FUS-mEGFP/RNA droplets (confocal imaging of Rho800 and FUS-mEGFP intensity inside droplets); details: increasing Rho800 concentrations, FIG. 4
T1 sequence (P35637 1-526): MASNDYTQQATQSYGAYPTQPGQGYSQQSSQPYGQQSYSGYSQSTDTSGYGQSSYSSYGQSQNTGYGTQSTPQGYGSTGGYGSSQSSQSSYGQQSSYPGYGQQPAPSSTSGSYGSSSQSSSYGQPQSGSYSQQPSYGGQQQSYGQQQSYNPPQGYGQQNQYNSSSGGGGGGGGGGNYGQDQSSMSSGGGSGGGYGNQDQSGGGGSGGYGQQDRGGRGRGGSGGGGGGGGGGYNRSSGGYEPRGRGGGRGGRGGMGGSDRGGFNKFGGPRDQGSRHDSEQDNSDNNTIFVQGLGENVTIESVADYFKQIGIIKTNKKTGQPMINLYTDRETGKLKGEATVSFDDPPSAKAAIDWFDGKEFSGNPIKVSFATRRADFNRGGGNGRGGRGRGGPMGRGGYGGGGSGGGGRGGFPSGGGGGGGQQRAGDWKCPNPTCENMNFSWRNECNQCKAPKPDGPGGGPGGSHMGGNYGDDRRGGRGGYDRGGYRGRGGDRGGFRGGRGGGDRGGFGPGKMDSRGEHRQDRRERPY
Description: For partitioning study, droplets were prepared in a low-attachment 384-well plate by mixing recombinant FUS-mEGFP protein with synthetic PrD RNA, in the presence of the indicated concentration of Rho800, at a final concentration of […] FUS-mEGFP and 250 nM PrD RNA, using an automated liquid handler. The droplets were incubated at room temperature, in the dark for 4 hours and imaged using a high content confocal fluorescence microscope. Values indicated on the y-axis of FIG. 4 (n=3) were obtained by quantitative image analysis and represent the mean per well intensity of FUS-mEGFP and Rho800 inside segmented droplets.

FUS-RRM = target: T2, FUS-RRM (Homo sapiens, UniProt P35637); assay: NMR 1H/15N-HSQC titration of FUS-RRM with Rho800 (chemical shift perturbations); assay type: binding; details: CSPs by 1H/15N-HSQC 2D-NMR; FIG. 5A, 5B
T2 construct: made in house; host or cells: E. coli
T2 sequence (P35637 285-371 limits assumed): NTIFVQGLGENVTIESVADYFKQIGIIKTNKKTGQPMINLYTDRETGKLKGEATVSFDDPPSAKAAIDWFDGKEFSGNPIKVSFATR
Description: For binding study, recombinant ^15N-isotope and ^15N/^13C-labeled FUS-RRM proteins were expressed in E. coli and purified using published methods. NMR peak assignments were transferred from publicly available data repositories and confirmed using standard 3D NMR methods. […] protein was titrated with Rho800, ^1H/^15N-HSQC (heteronuclear single quantum coherence) were recorded, and chemical shift perturbations (CSPs) were calculated from the […] Rho800 spectra.

FUS-SNAP condensates = target: T3, FUS-SNAP condensates (Homo sapiens, UniProt P35637); assay: Partitioning of RhoB into FUS-SNAP condensates formed in vitro (fluorescence and mass spectrometry); details: RhoB 5 μM and 1.25 μM; fluorescence spectroscopy (RhoB-FL) and mass spectroscopy (RhoB-MS); fraction of RhoB in supernatant; FIG. 3A
T3 sequence (P35637 1-526): T1 sequence (P35637 1-526)
Description: SNAP-tagged FUS protein (“FUS-SNAP”) and RhoB were mixed and subjected to a phase separation condition. The final concentration of RhoB in the reaction was 5 μM and 1.25 μM. For control experiment, no RhoB was added. The partition characteristic of RhoB to FUS-SNAP condensate was then measured by both a fluorescence spectroscopy and a mass spectroscopy-based technique described herein.
Images of the condensate droplets were acquired with a confocal microscope for appropriate setting for RhoB. The background signal of FUS-SNAP droplets in the absence of RhoB was also recorded. Fluorescence intensity was measured inside a FUS-SNAP condensate and in a region next to (outside) the FUS-SNAP condensate, and corrected for background signal (no RhoB controls), to calculate the fraction of RhoB in extra-condensate solution (i.e., supernatant).
A mass spectrometry-based method was used to measure the partition characteristics of RhoB and compared to measurements obtained using the fluorescence-based assay above. […] The amount of RhoB in the supernatant and a reference reaction were measured using mass spectrometry. The partition characteristic was then calculated based on the fraction of RhoB in extra-condensate solution (i.e., supernatant).

FUS-SNAP protein = target: T4, FUS-SNAP protein (Homo sapiens, UniProt P35637); assay: Binding affinity of RhoB to FUS-SNAP protein in the light phase (Dianthus MST); details: FIG. 3B
T4 sequence (P35637 1-526): T1 sequence (P35637 1-526)
Description: The binding affinity (Kd) of RhoB to FUS-SNAP protein in the light phase was measured using Dianthus MST technology.

FUS-EGFP condensate = target: T5, FUS-EGFP condensate (Homo sapiens, UniProt P35637); assay: Modulation of FUS-EGFP partitioning into the condensate by RhoB (confocal microscopy); assay type: biochemical; details: 1.5 μM RhoB vs no RhoB; FIG. 3C
T5 sequence (P35637 1-526): T1 sequence (P35637 1-526)
Description: EGFP-tagged FUS protein (“FUS-EGFP”) and RhoB were mixed and subjected to phase separation condition. The final concentration of RhoB in the reaction was 1.5 μM. For control experiment, no RhoB was added. Images were acquired with a confocal microscope, and EGFP signal inside (I-in) and outside (I-out) of the FUS-EGFP condensate was measured as described above.

Structure (SMILES) | partitioning of Rho800 into the condensate droplets (FUS-mEGFP/RNA droplets; 4 hours at room temperature) | partitioning of FUS-mEGFP in the condensate droplets in the presence of Rho800 (FUS-mEGFP/RNA droplets) | binding of Rho800 to FUS-RRM domain (FUS-RRM) | partitioning of RhoB into FUS-SNAP condensates (FUS-SNAP condensates) | Kd (FUS-SNAP protein) | partitioning of EGFP-labeled FUS into the condensate in the presence of RhoB (FUS-EGFP condensate)
N#CC1=c2cc3c4c(c2Oc2c1cc1c5c2CCCN5CCC1)CCC[N+]=4CCC3 [Rho800] | increased partitioning of the compound into the condensate droplets | FUS-mEGFP de-partitioning from the condensate droplets | binds directly to the FUS-RRM domain | – | – | –
CCN(CC)c1ccc2c(-c3ccccc3C(=O)O)c3ccc(=[N+](CC)CC)cc-3oc2c1 [RhoB, Rhodamine B] | – | – | – | partitions into FUS-SNAP condensates | 17.1 µM | partitioned less into the condensate

— patent US20230314443A1, “METHODS OF IDENTIFYING INTERACTIONS OF A COMPOUND AND A CONDENSATE, OR A COMPONENT THEREOF, AND USES THEREOF” (Dewpoint Therapeutics, Inc., priority 2020, published 2023)
